The values that follow come from US9266835B2, “Quinoline derivatives useful as CB-1 inverse agonists” (JANSSEN PHARMACEUTICA NV, priority 2014, dated 2016).

In assay [1] the target is Human CB1R (Cannabinoid receptor 1) (Homo sapiens (Human), UniProt P21554). The experiment in a line: CB-1 in vitro cAMP assay (HTRF), inverse agonism. In kind it is cell-based. Conditions: mean where tested more than once.
Assay [2] has as its target Human CB2R (Cannabinoid receptor 2) (Homo sapiens (Human), UniProt P34972). The experiment in a line: CB-2 in vitro cAMP assay (HTRF), inverse agonism. In kind it is cell-based. Conditions: mean where tested more than once. A general note: Cyclic AMP is a second messenger, typically raised through Gs and lowered through Gi signalling.

As a reminder, the EC50 is the concentration needed to bring the measured effect to its halfway point.

Structures are written as SMILES. Structures can show the parent of a compound that is named as a salt.

Sequence of Human CB1R (Cannabinoid receptor 1) (P21554 whole entry): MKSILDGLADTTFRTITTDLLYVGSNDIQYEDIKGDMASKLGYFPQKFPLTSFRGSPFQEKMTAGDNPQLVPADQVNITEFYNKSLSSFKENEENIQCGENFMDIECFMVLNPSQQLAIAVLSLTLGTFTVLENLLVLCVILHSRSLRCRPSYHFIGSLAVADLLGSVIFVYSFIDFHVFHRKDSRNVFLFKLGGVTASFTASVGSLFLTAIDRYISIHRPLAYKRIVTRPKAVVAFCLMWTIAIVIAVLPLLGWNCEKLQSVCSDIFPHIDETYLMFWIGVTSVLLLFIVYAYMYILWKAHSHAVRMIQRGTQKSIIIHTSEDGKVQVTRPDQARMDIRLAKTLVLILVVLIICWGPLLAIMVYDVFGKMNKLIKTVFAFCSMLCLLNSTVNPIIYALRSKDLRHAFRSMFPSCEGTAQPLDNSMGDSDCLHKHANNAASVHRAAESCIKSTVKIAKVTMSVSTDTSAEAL
Sequence of Human CB2R (Cannabinoid receptor 2) (P34972 whole entry): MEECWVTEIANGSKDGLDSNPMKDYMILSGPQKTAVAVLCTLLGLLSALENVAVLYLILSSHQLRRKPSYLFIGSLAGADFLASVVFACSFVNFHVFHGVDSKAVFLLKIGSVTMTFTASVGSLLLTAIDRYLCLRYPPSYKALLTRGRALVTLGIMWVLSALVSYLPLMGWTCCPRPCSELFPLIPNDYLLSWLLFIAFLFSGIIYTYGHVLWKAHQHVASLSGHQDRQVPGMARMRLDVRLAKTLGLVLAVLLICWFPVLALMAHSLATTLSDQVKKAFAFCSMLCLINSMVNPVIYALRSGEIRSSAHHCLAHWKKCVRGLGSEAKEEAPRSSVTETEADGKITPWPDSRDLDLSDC

Regarding `CC(C)(C)OC(=O)NCCCCOc1cc(C(c2ccc(Cl)cc2)c2ccc(Cl)cc2)cc2c(NC3CCN(S(=O)(=O)C(F)(F)F)CC3)ccnc12` [Compound 539, tert-butyl (4-((6-(bis(4-chlorophenyl)methyl)-4-((1-((trifluoromethyl)sulfonyl)piperidin-4-yl)amino)quinolin-8-yl)oxy)butyl)carbamate], the EC50 in assay [1] is 0.096 µM; in assay [2], above 21 µM.
As for `CCOC(=O)CCCCOc1cc(C(c2ccc(Cl)cc2)c2ccc(Cl)cc2)cc2c(NC3CCN(S(=O)(=O)C(F)(F)F)CC3)ccnc12` [Compound 540, ethyl 5-((6-(bis(4-chlorophenyl)methyl)-4-((1-((trifluoromethyl)sulfonyl)piperidin-4-yl)amino)quinolin-8-yl)oxy)pentanoate], the EC50 in assay [1] amounted to 0.081 µM; in assay [2] it was 7.1 µM.
For `O=S(=O)(N1CCC(Nc2ccnc3c(O)cc(C(c4ccc(Cl)cc4)c4ccc(Cl)cc4)cc23)CC1)C(F)(F)F` [Compound 541, 6-(bis(4-chlorophenyl)methyl)-4-((1-((trifluoromethyl)sulfonyl)piperidin-4-yl)amino)quinolin-8-ol] the same measures were 0.339 µM and above 10 µM.
`NCCCCOc1cc(C(c2ccc(Cl)cc2)c2ccc(Cl)cc2)cc2c(NC3CCN(S(=O)(=O)C(F)(F)F)CC3)ccnc12` [Compound 542, 8-(4-aminobutoxy)-6-(bis(4-chlorophenyl)methyl)-N-(1-((trifluoromethyl)sulfonyl)piperidin-4-yl)quinolin-4-amine, trifluoroacetic acid salt]: the EC50 in assay [1] is 0.144 µM; in assay [2], above 10 µM.
`CC(=O)NCCCCOc1cc(C(c2ccc(Cl)cc2)c2ccc(Cl)cc2)cc2c(NC3CCN(S(=O)(=O)C(F)(F)F)CC3)ccnc12` [Compound 543, N-(4-((6-(bis(4-chlorophenyl)methyl)-4-((1-((trifluoromethyl)sulfonyl)piperidin-4-yl)amino)quinolin-8-yl)oxy)butyl)acetamide, trifluoroacetic acid salt]: the EC50 in assay [1] was 0.102 µM; in assay [2], above 10 µM.
Turning to `CCOC(=O)COc1cc(C(c2ccc(Cl)cc2)c2ccc(Cl)cc2)cc2c(NC3CCN(S(=O)(=O)C(F)(F)F)CC3)cc(=O)[nH]c12` [Compound 544], the EC50 amounted to 0.126 µM in assay [1] and 3.4 µM in assay [2].
Taken in the same sequence, the figures for `O=C(O)COc1cc(C(c2ccc(Cl)cc2)c2ccc(Cl)cc2)cc2c(NC3CCN(S(=O)(=O)C(F)(F)F)CC3)cc(=O)[nH]c12` [Compound 545] were 4.9 µM and above 10 µM.
In the case of `COc1cc(NC2CCN(S(=O)(=O)C(F)(F)F)CC2)c2cc(C(c3ccc(Cl)cc3)c3ccc(Cl)cc3)cc(Br)c2n1` [Compound 546, 6-(bis(4-chlorophenyl)methyl)-8-bromo-2-methoxy-N-(1-((trifluoromethyl)sulfonyl)piperidin-4-yl)quinolin-4-amine], the EC50 in assay [1] was 0.121 µM; in assay [2] it was 4.8 µM.
For `COC/C=C/c1cc(C(c2ccc(Cl)cc2)c2ccc(Cl)cc2)cc2c(NC3CCN(S(=O)(=O)C(F)(F)F)CC3)cc(OC)nc12` [Compound 547, 6-(bis(4-chlorophenyl)methyl)-2-methoxy-8-(3-methoxyprop-1-en-1-yl)-N-(1-((trifluoromethyl)sulfonyl)piperidin-4-yl)quinolin-4-amine] the same measures were 0.036 µM and above 42 µM.
`COCCCc1cc(C(c2ccc(Cl)cc2)c2ccc(Cl)cc2)cc2c(NC3CCN(S(=O)(=O)C(F)(F)F)CC3)cc(OC)nc12` [Compound 548, 6-[bis(4-chlorophenyl)methyl]-2-methoxy-8-(3-methoxypropyl)-N-[1-(trifluoromethane)sulfonylpiperidin-4-yl]quinolin-4-amine]: the figures for the EC50 in assay [1] and in assay [2] were 0.058 µM and above 42 µM, respectively.
Taken in the same sequence, the figures for `COc1cc(NC2CCN(S(=O)(=O)C(F)(F)F)CC2)c2cc(C(c3ccc(Cl)cc3)c3ccc(Cl)cc3)cc(/C=C/CO)c2n1` [Compound 549, (2E)-3-[6-[bis(4-chlorophenyl)methyl]-2-methoxy-4-[[1-(trifluoromethane)sulfonylpiperidin-4-yl]amino]quinolin-8-yl]prop-2-en-1-ol] were 0.036 µM and 3.8 µM.
Taken in the same sequence, the figures for `COc1cc(NC2CCN(S(=O)(=O)C(F)(F)F)CC2)c2cc(C(c3ccc(Cl)cc3)c3ccc(Cl)cc3)cc(CCCO)c2n1` [Compound 550, 3-(6-(bis(4-chlorophenyl)methyl)-2-methoxy-4-((1-((trifluoromethyl)sulfonyl)piperidin-4-yl)amino)quinolin-8-yl)propan-1-ol] were 0.031 µM and 0.115 µM.
Taken in the same sequence, the figures for `Cn1c(=O)cc(NC2CCN(S(=O)(=O)C(F)(F)F)CC2)c2cc(C(c3ccc(Cl)cc3)c3ccc(Cl)cc3)ccc21` [Compound #49, 6-[bis(4-chlorophenyl)methyl]-1-methyl-4-[[1-(trifluoromethane)sulfonylpiperidin-4-yl]amino]-1,2-dihydroquinolin-2-one] were 0.024 µM and above 10 µM.
Regarding `O=c1cc(NC2CCN(S(=O)(=O)C(F)(F)F)CC2)c2cc(C(c3ccc(Cl)cc3)c3ccc(Cl)c(Cl)c3)ccc2[nH]1` (stereo not drawn) [Compound #53, 6-[(4-chlorophenyl)(3,4-dichlorophenyl)methyl]-4-[[1-(trifluoromethane)sulfonylpiperidin-4-yl]amino]-1,2-dihydroquinolin-2-one], the half-maximal effective concentration (EC50) was 0.02 µM in assay [1] and above 14 µM in assay [2].
For `COc1ccc(C(c2ccc(Cl)cc2)c2ccc3[nH]c(=O)cc(NC4CCN(S(=O)(=O)C(F)(F)F)CC4)c3c2)cc1` (stereo not drawn) [Compound #54, 6-((4-chlorophenyl)(4-methoxyphenyl)methyl)-4-((1-((trifluoromethyl)sulfonyl)piperidin-4-yl)amino)quinolin-2(1H)-one], the EC50 in assay [1] is 0.008 µM; in assay [2], 1.83 µM.
For `CCS(=O)(=O)N1CCC(Nc2cc(=O)[nH]c3ccc(C(c4ccc(Cl)cc4)c4ccc(Cl)cc4)cc23)CC1` [Compound #56, 6-(bis(4-chlorophenyl)methyl)-4-((1-(ethylsulfonyl)piperidin-4-yl)amino)quinolin-2(1H)-one] the same measures were 0.022 µM and above 10 µM.
Taken in the same sequence, the figures for `O=c1cc(NCc2cccc(C(F)(F)F)c2)c2cc(C(c3ccc(Cl)cc3)c3ccc(Cl)cc3)ccc2[nH]1` [Compound #61, 6-(bis(4-chlorophenyl)methyl)-4-((3-(trifluoromethyl)benzyl)amino)quinolin-2(1H)-one] were 0.007 µM and 1.81 µM.
In the case of `O=c1cc(NC2CCN(S(=O)(=O)C(F)(F)F)CC2)c2cc(C(c3ccc(O)cc3)c3ccc(Cl)cc3)ccc2[nH]1` (stereo not drawn) [Compound #66, 6-((4-chlorophenyl)(4-hydroxyphenyl)methyl)-4-((1-((trifluoromethyl)sulfonyl)piperidin-4-yl)amino)quinolin-2(1H)-one], the EC50 in assay [1] is 0.022 µM; in assay [2] it was 7.69 µM.
For `O=c1cc(NCc2ccc(C(F)(F)F)nc2)c2cc(C(c3ccc(Cl)cc3)c3ccc(Cl)cc3)ccc2[nH]1` [Compound #70, 6-(bis(4-chlorophenyl)methyl)-4-(((6-(trifluoromethyl)pyridin-3-yl)methyl)amino)quinolin-2(1H)-one] the same measures were 0.007 µM and above 10 µM.
For `O=c1cc(NC2CCCCC2)c2cc(C(c3ccc(Cl)cc3)c3ccc(Cl)cc3)ccc2[nH]1` [Compound #71, 6-(bis(4-chlorophenyl)methyl)-4-(cyclohexylamino)quinolin-2(1H)-one] the same measures were 0.007 µM and above 10 µM.
For `O=c1cc(NC2CCN(S(=O)(=O)C(F)(F)F)CC2)c2cc(C(c3ccc(Cl)cc3)c3ccc(Cl)nc3)ccc2[nH]1` (stereo not drawn) [Compound #72, 6-[(4-chlorophenyl)(6-chloropyridin-3-yl)methyl]-4-[[1-(trifluoromethane)sulfonylpiperidin-4-yl]amino]-1,2-dihydroquinolin-2-one] the same measures were 0.011 µM and 6.6 µM.
As to `O=c1cc(NC2CCN(CC(F)(F)F)CC2)c2cc(C(c3ccc(Cl)cc3)c3ccc(Cl)cc3)ccc2[nH]1` [Compound #77, 6-(bis(4-chlorophenyl)methyl)-4-((1-(2,2,2-trifluoroethyl)piperidin-4-yl)amino)quinolin-2(1H)-one], the EC50 in assay [1] is 0.003 µM; in assay [2], above 10 µM.
With `O=c1cc(NC2CCN(S(=O)(=O)C(F)(F)F)CC2)c2cc(C(Cc3ccc(F)cc3)c3ccc(Cl)cc3)ccc2[nH]1` (stereo not drawn) [Compound #135, 6-(1-(4-chlorophenyl)-2-(4-fluorophenyl)ethyl)-4-((1-((trifluoromethyl)sulfonyl)piperidin-4-yl)amino)quinolin-2(1H)-one], the EC50 in assay [1] is 1.1 µM; in assay [2], 6.81 µM.
Taken in the same sequence, the figures for `O=c1cc(NC2CCN(S(=O)(=O)C(F)(F)F)CC2)c2cc(C(Oc3ccc(Cl)cc3)c3ccc(Cl)cc3)ccc2[nH]1` (stereo not drawn) [Compound #136, 6-[4-chlorophenoxy(4-chlorophenyl)methyl]-4-[[1-(trifluoromethane)sulfonylpiperidin-4-yl]amino]-1,2-dihydroquinolin-2-one] were 0.122 µM and above 10 µM.
